Assay results published in the supplement of paper PMC7287046.

Columns and labels:
Details in all cases: exposure time: 72 h
[1] = tested on: T98G; test: HSA synergy score (Combenefit); higher = more synergy
Protocol: (§1)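 The same 6x6 dose matrices of drug pairs on glioma cell lines (72 h, CellTiter-Glo viability normalised to DMSO, triplicate) were scored with Combenefit. The Loewe, Bliss and HSA synergy scores are given; paper thresholds are Loewe 7.8 and Bliss 2.5.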

[2] = tested on: AM-38; test: as above
Protocol: as §1

[3] = tested on: U118; test: as above
Protocol: as §1

[4] = tested on: SF268; test: as above
Protocol: as §1

[5] = tested on: U251; test: as above
Protocol: as §1

[6] = tested on: SF539; test: as above
Protocol: as §1

[7] = tested on: KNS-42; test: as above
Protocol: as §1

[8] = tested on: U87; test: as above
Protocol: as §1

[9] = tested on: SNB75; test: as above
Protocol: as §1

[10] = tested on: AM38; test: Chou-Talalay combination index (dimensionless); higher = less synergy (more antagonism)
Protocol: (§2)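 Glioma cell lines were treated for 72 h with a 6x6 matrix of two drugs, each in twofold dilutions with the top dose at the single-drug IC50. Viability was read by CellTiter-Glo and normalised to DMSO controls, in triplicate. The Chou-Talalay combination index was computed by the median effect principle; CI < 0.8 means synergy.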

[11] = tested on: T98; test: as above
Protocol: as §2

[12] = tested on: U118; test: as above
Protocol: as §2

[13] = tested on: SF268; test: as above
Protocol: as §2

[14] = tested on: U251; test: as above
Protocol: as §2

[15] = tested on: SF539; test: as above
Protocol: as §2

[16] = tested on: KNS42; test: as above
Protocol: as §2

[17] = tested on: U87; test: as above
Protocol: as §2

[18] = tested on: SNB75; test: as above
Protocol: as §2

[19] = tested on: T98G; test: Loewe synergy score (Combenefit); higher = more synergy; extreme values may be limits of the assay
Protocol: as §1

[20] = tested on: AM-38; test: as above
Protocol: as §1

[21] = tested on: U118; test: as above
Protocol: as §1

[22] = tested on: SF268; test: as above
Protocol: as §1

[23] = tested on: U251; test: as above
Protocol: as §1

[24] = tested on: SF539; test: as above
Protocol: as §1

[25] = tested on: KNS-42; test: as above
Protocol: as §1

[26] = tested on: U87; test: as above
Protocol: as §1

[27] = tested on: SNB75; test: as above
Protocol: as §1

[28] = tested on: T98G; test: Bliss synergy score (Combenefit); higher = more synergy; extreme values may be limits of the assay
Protocol: as §1

[29] = tested on: AM-38; test: as above
Protocol: as §1

[30] = tested on: U118; test: as above
Protocol: as §1

[31] = tested on: SF268; test: as above
Protocol: as §1

[32] = tested on: U251; test: as above
Protocol: as §1

[33] = tested on: SF539; test: as above
Protocol: as §1

[34] = tested on: KNS-42; test: as above
Protocol: as §1

[35] = tested on: U87; test: as above
Protocol: as §1

[36] = tested on: SNB75; test: as above
Protocol: as §1

| SMILES | HSA synergy score [1] | HSA synergy score [2] | HSA synergy score [3] | HSA synergy score [4] | HSA synergy score [5] | HSA synergy score [6] | HSA synergy score [7] | HSA synergy score [8] | HSA synergy score [9] | Chou-Talalay combination index [10] | Chou-Talalay combination index [11] | Chou-Talalay combination index [12] | Chou-Talalay combination index [13] | Chou-Talalay combination index [14] | Chou-Talalay combination index [15] | Chou-Talalay combination index [16] | Chou-Talalay combination index [17] | Chou-Talalay combination index [18] | Loewe synergy score [19] | Loewe synergy score [20] | Loewe synergy score [21] | Loewe synergy score [22] | Loewe synergy score [23] | Loewe synergy score [24] | Loewe synergy score [25] | Loewe synergy score [26] | Loewe synergy score [27] | Bliss synergy score [28] | Bliss synergy score [29] | Bliss synergy score [30] | Bliss synergy score [31] | Bliss synergy score [32] | Bliss synergy score [33] | Bliss synergy score [34] | Bliss synergy score [35] | Bliss synergy score [36] |
| --- | --- | --- | --- | --- | --- | --- | --- | --- | --- | --- | --- | --- | --- | --- | --- | --- | --- | --- | --- | --- | --- | --- | --- | --- | --- | --- | --- | --- | --- | --- | --- | --- | --- | --- | --- | --- |
| O=c1[nH]c2ccccc2n1C1CCN(Cc2ccc(-c3[nH]c4cc5ncnc5cc4nc3-c3ccccc3)cc2)CC1 [Akt inhibitor VIII] + N#CC(c1ccnc(NCCc2cccnc2)n1)c1nc2ccccc2s1 [AS601245] | 17.9 | 14 | 12.4 | 8.59 | 3.96 | 0.651 | 3.65 | 12.3 | 5.96 | 0.584 | 0.031 | 0.264 | 0.805 | 0.641 | 0.966 | 0.979 | 0.0154 | 0.89 | 9.66 | 11.2 | 7.71 | 0.94 | 3.96 | 0.638 | 1.66 | 6.85 | 0.62 | 9.74 | 8.16 | 5.46 | 1.39 | 3.96 | 0.0617 | 0.964 | 10.4 | 1.31 |
| Nc1ccn([C@@H]2O[C@H](CO)[C@@H](O)C2(F)F)c(=O)n1 [Gemcitabine] + CO[C@H]1C[C@@H]2CC[C@@H](C)[C@@](O)(O2)C(=O)C(=O)N2CCCC[C@H]2C(=O)O[C@H]([C@H](C)C[C@@H]2CC[C@@H](O)[C@H](OC)C2)CC(=O)[C@H](C)/C=C(\C)[C@@H](O)[C@@H](OC)C(=O)[C@H](C)C[C@H](C)/C=C/C=C/C=C/1C [Rapamycin] | 1.52 | 0.0506 | 23 | 18.5 | 4.63 | 18.2 | 0.15 | 10 | 4.52 | 0.998 | 1.13 | 0.654 | 0.786 | 0.677 | 0.669 | 1.04 | 0.683 | 0.95 | 1.27 | 0.0506 | 22 | 18.1 | 4.63 | 16.9 | 0.0119 | 10 | 4.52 | 0 | 0.0506 | 2.62 | 6.03 | 0.62 | 4.47 | 0 | 1.89 | 1.41 |
| Nc1ccn([C@@H]2O[C@H](CO)[C@@H](O)C2(F)F)c(=O)n1 [Gemcitabine] + C=CCc1cccc(/C=N/NC(=O)CN2CCN(Cc3ccccc3)CC2)c1O [PAC-1] | 3.73 | 0.966 | 1.58 | 3.55 | 1.09 | 3.14 | 22.7 | 0 | 5.49 | 1 | 0.935 | 0.999 | 0.965 | 0.722 | 0.863 | 0.675 | 1.06 | 0.978 | 0.986 | 0.966 | 0 | 0.48 | 0.777 | 0.062 | 21.9 | 0 | 0.834 | 0.518 | 0 | 0 | 0.0746 | 0.174 | 0.236 | 0.716 | 0 | 0.278 |
| CO[C@H]1C[C@@H]2CC[C@@H](C)[C@@](O)(O2)C(=O)C(=O)N2CCCC[C@H]2C(=O)O[C@H]([C@H](C)C[C@@H]2CC[C@@H](O)[C@H](OC)C2)CC(=O)[C@H](C)/C=C(\C)[C@@H](O)[C@@H](OC)C(=O)[C@H](C)C[C@H](C)/C=C/C=C/C=C/1C [Rapamycin] + Cc1cc([C@@H](C)Nc2ccccc2C(=O)O)c2nc(N3CCOCC3)cc(=O)n2c1 [AZD6482] | 14.4 | 12.4 | 3.28 | 3.85 | 1.43 | 6.85 | 2.6 | 0 | 25.2 | 0.643 | 0.924 | 1.16 | 1.02 | 0.927 | 1.05 | 0.912 | 0.974 | 0.75 | 12 | 9.55 | 2.56 | 3.35 | 1.43 | 5.95 | 2.6 | 0 | 21.8 | 0.59 | 1.1 | 0 | 0.00824 | 1.43 | 0 | 1.42 | 0 | 3.78 |
| CCCCCCCCCCCC1=C(O)C(=O)C=C(O)C1=O [Embelin] + O=c1[nH]c2ccccc2n1C1CCN(Cc2ccc(-c3[nH]c4cc5ncnc5cc4nc3-c3ccccc3)cc2)CC1 [Akt inhibitor VIII] | 5.06 | 2.45 | 2.72 | 6.9 | 0.813 | 2.02 | 21.8 | 3.6 | 5.56 | 0.773 | 0.226 | 0.946 | 0.946 | 0.839 | 1.03 | 0.589 | 0.641 | 0.773 | 3.51 | 0.351 | 1.18 | 1.14 | 0.813 | 0.853 | 21.4 | 1.72 | 1.11 | 1.2 | 1.12 | 1.02 | 2.64 | 0.813 | 0.0542 | 10.1 | 3.16 | 1.95 |
| C[C@@H](Oc1cc(-c2cnn(C3CCNCC3)c2)cnc1N)c1c(Cl)ccc(F)c1Cl [Crizotinib] + C=CCc1cccc(/C=N/NC(=O)CN2CCN(Cc3ccccc3)CC2)c1O [PAC-1] | 2.4 | 0.987 | 2.29 | 1.21 | 1.43 | 3.88 | 16.5 | 4.47 | 5.78 | 0.937 | 0.476 | 0.584 | 1.04 | 0.821 | 0.877 | 0.421 | 0.154 | 0.951 | 2.4 | 0.141 | 0.609 | 0.692 | 1.22 | 0.62 | 15.3 | 4.47 | 0.297 | 2.4 | 0.773 | 0.539 | 0 | 0.0857 | 1.39 | 7.19 | 4.47 | 0.417 |
| C#Cc1cccc(Nc2ncnc3cc(OCCOC)c(OCCOC)cc23)c1 [Erlotinib] + N#CC(c1ccnc(NCCc2cccnc2)n1)c1nc2ccccc2s1 [AS601245] | 3.77 | 0 | 3.12 | 2.63 | 3.14 | 2.83 | 2.81 | 0 | 1.2 | 1.25 | 0.621 | 1.02 | 0.948 | 0.946 | 1.01 | 0.914 | 3 | 1.07 | 3.11 | 0 | 2.58 | 0.12 | 2.04 | 0.448 | 1.56 | 0 | 0.0161 | 0.855 | 0 | 0 | 0.0526 | 0 | 0.186 | 0.447 | 0 | 0 |
| C=CCc1cccc(/C=N/NC(=O)CN2CCN(Cc3ccccc3)CC2)c1O [PAC-1] + CCOc1nc(NC(=O)Cc2cc(OC)ccc2OC)cc(N)c1C#N [JNK inhibitor VIII] | 3.49 | 3.74 | 2.56 | 5.39 | 3.65 | 7.4 | 11.2 | 5.02 | 6.97 | 0.965 | 0.982 | 0.622 | 0.951 | 0.85 | 0.58 | 0.944 | 0.794 | 0.91 | 1.34 | 0.484 | 2.38 | 0.606 | 0.13 | 2.49 | 7.1 | 4.97 | 5.04 | 0 | 0 | 0.51 | 1.09 | 2.01 | 3.99 | 0 | 0.501 | 0.0865 |
| CO[C@H]1C[C@@H]2CC[C@@H](C)[C@@](O)(O2)C(=O)C(=O)N2CCCC[C@H]2C(=O)O[C@H]([C@H](C)C[C@@H]2CC[C@@H](O)[C@H](OC)C2)CC(=O)[C@H](C)/C=C(\C)[C@@H](O)[C@@H](OC)C(=O)[C@H](C)C[C@H](C)/C=C/C=C/C=C/1C [Rapamycin] + C[C@@H](Oc1cc(-c2cnn(C3CCNCC3)c2)cnc1N)c1c(Cl)ccc(F)c1Cl [Crizotinib] | 0 | 0.00484 | 5.07 | 8.72 | 26.2 | 3.78 | 19.5 | 19.4 | 10.4 | 1.07 | 1.1 | 1 | 0.928 | 0.715 | 0.968 | 0.807 | 0.683 | 0.943 | 0 | 0 | 5.03 | 8.2 | 26 | 3.24 | 18.6 | 16.4 | 9.67 | 0 | 0 | 0 | 0.0254 | 5.62 | 0 | 3.73 | 11.2 | 0.128 |
